Experimental data from patent US20250213700A1, “COMPOUNDS, COMPOSITIONS, AND METHODS FOR CELL-SPECIFIC PHARMACOLOGY” (Duke University, priority 2022, published 2025).

What was measured:
[1] = system: AMPAR; test: whole-mount retina, AMPAR-mediated evoked EPSC in retinal ganglion cells; assay type: cell-based, mouse; conditions: 300 nM, 15 min
Protocol: (FIG. 6A) Viral strategy (top panel). […] Experimental overview (second panel from the top to bottom panel). Top: whole retina; synaptic current is evoked (stim) and recorded (voltage-clamp of dTomato+ RGC), with ionic and pharmaceutical conditions chosen to isolate the AMPAR or GABAAR. A 10 min baseline is followed by 15 min application of 300 nM Rx^DART.2+30 nM Alexa^647.1DART.2. […] (FIG. 6B) CMPDA.2^DART.2 (left). Electropositive spacer (PDB 3RNN). […] AMPAR structural model (middle) (composite of PDB 5WEO, 3RNN, and 1FTL). Cylinder depicts cell membrane. […] YM90K.1^DART.2 (right). Structural model (PDB 1FTL). […] (FIG. 6C) diazepam.1^DART.2 (left). Structural model (PDB 6HUP). […] GABAAR (middle) structural model (composite of PDB 6HUP and 6HUK). […] Structural model (PDB 6HUK).
Preparation of Retina: Mice were intravitreal injected AAV10 HaloTag™-dTomato to eyes. After 8-12 weeks, the mice killed by cervical dislocation. Both eyes were removed and dissected under a stereo-microscope. Retinas were isolated from the eyecups and placed in oxygenated (95% O2/5% CO2) cold-Ames medium (Sigma-Aldrich), supplemented with 21 mM NaHCO3. After the vitreous body was removed, a retina was cut into 3 pieces, leaving each retina piece attached to a filter paper with 2 mm hole by retina ganglion-cell-side-down. The pieces of retina were stored in bubbled Ames solution at room temperature, then transferred to recording chamber with retina ganglion-cell-side-up for recording.
Whole-cell patch-clamp recording: The brain slices or retinas were perfused with bubbled aCSF at 29-30° C. with a 2 ml/min flow rate. Recordings were made by whole cell patch recording techniques using a Multiclamp 700B amplifier (Molecular Devices, Axon Instruments Inc., Union City, CA). The signals were filtered at 10 KHz and acquired using Digitate 1440A and pClamp 10.7 (Molecular Devices). The recording pipettes (4 MΩ-6 MΩ) were filled with internal solutions. For GABAA receptor-mediated evoked inhibitory postsynaptic currents ([…]) recording, the pipettes filled with Cesium Chloride-based internal solution (in mM) 135 CsCl, 2 MgCl2, 0.5 EGTA, 10 HEPES, 4 Mg-ATP, 0.5 Na-GTP, 10 Na2-phosphocreatine, and QX314 (lidocaine N-ethyl bromide), pH adjusted to 7.3 with CsOH (290 mosm). For AMPA-receptor mediated evoked excitatory postsynaptic currents (eEPSCs) recording, the pipette solution contained (in mM) 130 CsMeS, 1 MgCl2, 0.5 EGTA, 10 HEPES, 4 Mg-ATP, 0.5 Na-GTP, 10 Na2-phosphocreatine, and 4 QX314, pH adjusted to 7.3 with CsOH (290 mosm). For experiment of brain slices and retinas, the eIPSCs or eEPSCs were elicited by electrical stimuli at 0.067 Hz in 0.3-ms duration and 150-300-ρA (60-70% maximum responses) stimulation intensity at a holding potential of −70 mV. The stimulating electrode was placed within 60-100 μm from the recording neuron under voltage-clamp mode. GABA-receptor mediated eIPSCs were isolated in the presence of DNQX ([…] AMPAR antagonist) and AP-V ([…] antagonist) in the bath solution. For AMPA-receptor mediated eEPSCs, added picrotoxin ([…], GABAAR antagonist) and AP-V ([…]) to the bath solution.

[2] = system: endogenous AMPARs; test: all-optical cultured-neuron assay of AMPAR-dependent synaptic transmission; assay type: cell-based, rat; conditions: DW=Rx50/HTL50
Protocol: (§1) Cultured neuronal assays: Preparation of hippocampal cultures: Mixed glial and neuronal cultures were prepared from the hippocampus of postnatal day 0 to 1 Sprague-Dawley rat pups. Separate pools of dissociated cells were transfected via electroporation (LONZA, V4SP-3096) with plasmid constructs, and depending on assay directives, either plated individually or mixed with a different pool of electroporated cells after a 10 min recovery period. Cells were cultured on coverslips (Deckglaser) pre-treated with high molecular weight poly-D-lysine (Sigma, P7405; 0.05 mg/mL) in 24-well plates and maintained in NbActiv4 (BrainBits, Nb4-500) at 37 C, 5% CO2. Media was changed by half at DIV3 or 4 and then weekly thereafter; experiments were performed between DIV16 to DIV18.

[3] = system: endogenous GABAARs; test: all-optical assay of GABAAR antagonism in primary neuronal culture; assay type: cell-based, rat
Protocol: as §1
Gabazine: Dissociated neurons were electroporated with constructs and cultured for 2 weeks. The assay was performed in the same BASE solution as described above, but with the addition of synaptic blockers CPP (NMDAR antagonist; Tocris) and NBQX (AMPAR antagonist; Abcam, ab120046) to isolate GABAR activity, and a small amount of GABA (GABAR agonist; Sigma) to ensure GABAR activity (=GABAR-BASE). […] Instead, a high dose of regular gabazine was used to completely silence any cells that may not have had realized full antagonism by the end of the assay. Imaging alignment, proof-reading and analysis were performed in a similar fashion to the AMPAR assay using MatLab.
It was next focused on blocking the GABAAR, a ubiquitous transducer of synaptic inhibition. […] The structure-activity literature of gabazine, a selective GABAAR antagonist, was explored. The core gabazine pharmacophore includes of a 3-amino, 6-phenoxy-pyridazine ring, with GABA embedded in the 2-position (2 butyric acid). Based on historical, low-potency predecessors of gabazine, a longer GABA moiety (2 pentanoic acid), and methyl substituents (e.g., 5-CH3) were explored (FIG. 2F). For each variant, the 6-phenoxy moiety was modified to make a gabazinealkyne module, which was click-conjugated to DART.2. Several variants were made, including gabazine.1^DART.2 (2 butyric acid, 5-H), gabazine.5DART.2 (2 pentanoic acid, 5-H), and gabazine.7DART.2 (2 pentanoic acid, 5-CH3). An all-optical assay of endogenous GABAARs in primary neuronal culture was then developed. […] Excitatory synapses were blocked, such that opto-stimulation with ChR2 became the only source of neural excitation.

SMILES	AMPAR evoked EPSC block, +HTP cells [1]	AMPAR evoked EPSC block, +HTP cells ([1]; listed as YM90K.1^DART.2)	widening of Dosing Window vs DART.1 reagent [2] [fold]	DW (t=15 m) ([2]; ddHTP vs +HTP cells, 15 min)	increase in DW vs gabazine.1DART.2 [3] [fold]	increase in HTL50 vs gabazine.1DART.2 [3] [fold]	increase in Rx50 vs gabazine.1DART.2 [3] [fold]	DW (t=15 m) ([3]; ddHTP vs +HTP cells, 15 min, 15 uM GABA)
COc1cc(CCCCl)ccc1CCOCCNC(=O)c1ccc(CNC(=O)CCOCCOCCOCCOCCOCCOCCOCCOCCOCCOCCOCCOCCOCCOCCOCCOCCOCCOCCOCCOCCOCCOCCOCCOCCOCCOCCOCCOCCOCCOCCOCCOCCOCCOCCOCCOCCn2cc(COCCOCCOCCOCCOCCOCCNC(=O)CCCn3c(=O)c(=O)[nH]c4cc([N+](=O)[O-])c(-n5ccnc5)cc43)nn2)cc1 [YM90K.1DART.2]	blocked the AMPAR-mediated EPSC	blocked on ^+HTP cells	10	300				
COc1cc(CCCCl)ccc1CCOCCNC(=O)c1ccc(CNC(=O)CCOCCOCCOCCOCCOCCOCCOCCOCCOCCOCCOCCOCCOCCOCCOCCOCCOCCOCCOCCOCCOCCOCCOCCOCCOCCOCCOCCOCCOCCOCCOCCOCCOCCOCCOCCOCCn2cc(COCCOCCOCCOCCOCCOCCOCCCCCCOc3ccc(-c4nn(CCCCC(=O)O)c(=N)cc4C)cc3)nn2)cc1 [gabazine.7DART.2]					~6	~3	~20	3,000
